Laboratory results taken from US10738028B2, “Spiro three-membered ring, spiro five-membered ring peptide deformylase inhibitor and use thereof in antibacteria and anti-tumor” (priority 2016, dated 2020).
Values after ≈ are worked out from the molar mass of the structure shown.

Experiments:
[1] = tested on: methicillin-sensitive Staphylococcus aureus (MSSA); experiment: MIC, two-fold agar dilution (CLSI), clinical isolates; type: cell-based
In short: (§1)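 MIC values come from two-fold agar dilution run per CLSI antimicrobial susceptibility testing procedure.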

[2] = tested on: methicillin-resistant Staphylococcus aureus (MRSA); experiment: as above; type: cell-based
In short: as §1

[3] = tested on: methicillin-resistant Staphylococcus epidermidis (MRSE); experiment: as above; type: cell-based
In short: as §1

[4] = tested on: methicillin-sensitive Staphylococcus epidermidis (MSSE); experiment: as above; type: cell-based
In short: as §1

[5] = tested on: Enterococcus faecalis (EFA); experiment: as above; type: cell-based
In short: as §1

[6] = tested on: Escherichia coli (including ESBLs, non-ESBLs); experiment: as above; type: cell-based
In short: as §1

the test strains = experiment: MIC against the test strains (strain not given); type: cell-based; details: read-out: MIC (azole amide bioisosteres)
Excerpt: 1. The invention adopts the two-fold agar dilution method recommended by the operating procedure of antimicrobial susceptibility testing set by American Clinical and Laboratory Standards Institute (CLSI) to determine the Minimum Inhibitory Concentration (MIC) of the test samples against the tested strains.

[7] = tested on: methemoglobin in blood samples of three healthy volunteers; experiment: Toxicity on methemoglobin in vitro (whole blood with S9 and NADPH, absorbance at 630 nm); type: cell-based, human; details: 500 μM compound; whole blood + S9 + NADPH; 5 hours at 37° C.
In short: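 Fresh EDTA whole blood from three healthy volunteers incubated 5 h at 37 °C with human liver S9 (2 mg/mL), NADPH-generating system and compound at 500 μM final. Lysed in 1% Triton X-100; MetHb % from 630 nm absorbance relative to ferricyanide-oxidized blood.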

[8] = tested on: HCT-116 colorectal cancer cell line; experiment: CCK-8 proliferation inhibition; type: cell-based; details: Homo sapiens, HCT-116, 72 h, read-out: HCT116 inhibition rate/%
In short: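 Growth inhibition is read by CCK-8 (1:10 dilution) after 72 h of compound exposure. HCT-116 cells grow in McCoy's 5A containing 10% newborn bovine serum at 2000 cells/well, with 1‰ DMSO as vehicle control.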

[9] = strain printed MRSA 14-1 (second line of that name, r23, before MRSE 14-2)

Structure (SMILES)	MIC (anti-bacterial activity) ([1]; strain MSSA 14-1) [µg/mL]	MIC (anti-bacterial activity) ([1]; strain MSSA 14-2) [µg/mL]	MIC (anti-bacterial activity) ([1]; strain MSSA 14-3) [µg/mL]	MIC (anti-bacterial activity) ([1]; strain MSSA 14-4) [µg/mL]	MIC (anti-bacterial activity) ([2]; strain MRSA 14-1) [µg/mL]	MIC (anti-bacterial activity) ([2]; strain MRSA 14-2) [µg/mL]	MIC (anti-bacterial activity) ([2]; strain MRSA 14-4) [µg/mL]	MIC (anti-bacterial activity) ([2]; strain MRSA 14-5) [µg/mL]	MIC (anti-bacterial activity) [2, 9] [µg/mL]	MIC (anti-bacterial activity) ([3]; strain MRSE 14-2) [µg/mL]	MIC (anti-bacterial activity) ([3]; strain MRSE 14-3) [µg/mL]	MIC (anti-bacterial activity) ([3]; strain MRSE 14-4) [µg/mL]	MIC (anti-bacterial activity) ([4]; strain MSSE 14-1) [µg/mL]	MIC (anti-bacterial activity) ([4]; strain MSSE 14-2) [µg/mL]	MIC (anti-bacterial activity) ([4]; strain MSSE 14-3) [µg/mL]	MIC (anti-bacterial activity) ([4]; strain MSSE 14-4) [µg/mL]	MIC (anti-bacterial activity) ([5]; strain EFA 14-1) [µg/mL]	MIC (anti-bacterial activity) ([5]; strain EFA 14-2) [µg/mL]	MIC (anti-bacterial activity) ([5]; strain EFA 14-3) [µg/mL]	MIC (anti-bacterial activity) ([5]; strain EFA 14-5) [µg/mL]	further results
CCCC[C@H](CN(O)C=O)C(=O)N1CC2(CC2)C[C@H]1c1nc2ccccc2[nH]1 [Example 10, N—((R)-2-((S)-6-(1H-benzimidazol-2-yl)-5-azaspiro[2.4]heptane-5-carbonyl)hexyl)-N-hydroxyformamide]	2 (≈ 5.2 µM)	2 (≈ 5.2 µM)	2 (≈ 5.2 µM)	2 (≈ 5.2 µM)	1 (≈ 2.6 µM)	2 (≈ 5.2 µM)	2 (≈ 5.2 µM)	0.5 (≈ 1.3 µM)	1 (≈ 2.6 µM)	1 (≈ 2.6 µM)	0.5 (≈ 1.3 µM)	1 (≈ 2.6 µM)	0.5 (≈ 1.3 µM)	2 (≈ 5.2 µM)	0.5 (≈ 1.3 µM)	2 (≈ 5.2 µM)	8 (≈ 20.8 µM)	8 (≈ 20.8 µM)	8 (≈ 20.8 µM)	64 (≈ 166 µM)	MIC (anti-bacterial activity) ([6]; strain ECO+ 14-1): 0.5 µg/mL (≈ 1.3 µM); MIC (anti-bacterial activity) ([6]; strain ECO+ 14-2): 32 µg/mL (≈ 83.2 µM); MIC (anti-bacterial activity) ([6]; strain ECO− 14-1): 32 µg/mL (≈ 83.2 µM); MIC (anti-bacterial activity) ([6]; strain ECO− 14-2): 32 µg/mL (≈ 83.2 µM); MIC (the test strains): 0.5 to 2 µg/mL (≈ 1.3 to 5.2 µM); MetHb % (n = 3) [7]: 1.12 ± 0.01%; inhibition at 30 µM [8]: 10%
CCCC[C@H](CN(O)C=O)C(=O)N1CC2(CC2)C[C@H]1c1nc(-c2cccnc2)no1 [Example 11, N-hydroxy-N—((R)-2-((S)-6-(3-(pyridin-3-yl)-1,2,4-oxadiazol-5-yl)-5-azaspiro[2.4]heptane-5-carbonyl)hexyl)carboxamide]	0.5 (≈ 1.21 µM)	0.5 (≈ 1.21 µM)	0.5 (≈ 1.21 µM)	0.5 (≈ 1.21 µM)	0.5 (≈ 1.21 µM)	0.5 (≈ 1.21 µM)	0.5 (≈ 1.21 µM)	0.5 (≈ 1.21 µM)	0.25 (≈ 0.605 µM)	0.25 (≈ 0.605 µM)	0.125 (≈ 0.302 µM)	0.5 (≈ 1.21 µM)	0.125 (≈ 0.302 µM)	0.5 (≈ 1.21 µM)	0.125 (≈ 0.302 µM)	0.5 (≈ 1.21 µM)	2 (≈ 4.84 µM)	2 (≈ 4.84 µM)	2 (≈ 4.84 µM)	2 (≈ 4.84 µM)	MIC (anti-bacterial activity) ([6]; strain ECO+ 14-1): 1 µg/mL (≈ 2.42 µM); MIC (anti-bacterial activity) ([6]; strain ECO+ 14-2): 32 µg/mL (≈ 77.4 µM); MIC (anti-bacterial activity) ([6]; strain ECO− 14-1): 64 µg/mL (≈ 155 µM); MIC (anti-bacterial activity) ([6]; strain ECO− 14-2): 64 µg/mL (≈ 155 µM); MIC (the test strains): 0.5 to 2 µg/mL (≈ 1.21 to 4.84 µM); MetHb % (n = 3) [7]: 1.26 ± 0.07%; inhibition at 30 µM [8]: 17%
